System: warts (human papillomavirus-induced tumors)
Test: Topical treatment of warts in human patients (clinical case examples)
Type: in vivo
Description: The method of the present invention neither destroys healthy, uninfected tissue nor results in any local or systemic side effects, scarring, disfigurement or discomfort to the human treated. Furthermore, the use of the present method results in the destruction of latent viral DNA found in the tumor and the surrounding tissues so that instances of incomplete resolution and are prevented. […] In accordance with the method according to this invention, “regular use of the hydrogen peroxide” is meant to mean application of the hydrogen peroxide at least once a day to the body surface containing the wart(s). A further embodiment of the method of this invention comprises placing a small amount of gel residue or gel on the tumor to be treated. It has been determined through clinical evaluation that once the method of this invention is initiated, the warts begin to shrink, no matter what size, and will totally disappear after a period of four to six weeks of treatment, or less if the gel is applied more often than once daily at bedtime.
A person presented with warts on the right foot of some two months duration; measuring about 3 mm in diameter, with raised dark spots on the surface. Hydrogen peroxide gel was applied once daily at bedtime over the wart with a Q-tip and left open to air dry. […]

## OO [hydrogen peroxide]
Clinical evaluation, applied once daily at bedtime, warts of any size begin to shrink, less if applied more often
  period of treatment until warts totally disappear: four to six
Clinical experience to date
  overall clinical experience in treatment and elimination of warts: complete eradication of the warts with no recurrence

Reference: patent US20040101571A1, “Use of hydrogen peroxide for the treatment of warts” (priority 2002, published 2004)
